Columns and labels:
[1] = LNP hydrodynamic diameter and polydispersity index by dynamic light scattering (DLS); type: physicochemical; details: LNP of 47.5% ionizable lipid: 40% cholesterol: 2.5% PEG-2000 DMG: 10% DPSC, N/P 4-8
Experimental: (§1) LNPs were prepared with 47.5% Ionizable Lipid (e.g., a compound provided herein): 40% cholesterol: 2.5% PEG-2000 DMG; and 10% DPSC and an N/P ratio range of 4-8. LNPs were formed by microfluidic mixing of the lipid and NA solutions using a Precision Nanosystems NanoAssemblr Spark or Benchtop series Instruments, according to the manufacturers protocol. A ratio of aqueous to organic solvent of approximately 2:1 or 3:1 was maintained during mixing using differential flow rates. After mixing, LNPs were collected, diluted in phosphate buffer saline (PBS) or Tris-buffered saline (TBS) (approximately 1:1 v/v). Further buffer exchange was conducted using dialysis in PBS or TBS at 4° C. for 4 to 24 hours against a 20 kDa filter. After this initial dialysis, each individual LNP preparation was characterized via dynamic light scattering (DLS) to measure the size (e.g., diameter) and polydispersity. LNPs falling within specific diameter and polydispersity ranges were pooled, and further dialyzed against PBS or TBS at 4° C. for 1 to 4 hours against a 100 kDa dialysis cassette. After the second dialysis, LNPs were sterile filtered using 0.22 μm filter and stored at 4° C. for further use.
LNP hydrodynamic diameter and polydispersity index (PDI) were measured using high throughput dynamic light scattering (DLS) (Stunner, Unchained Labs). LNPs were diluted 1×TBS or PBS to an appropriate concentration and analyzed.

ALAS1 target site = experiment: In vivo base editing with LNP carrying adenine base editor mRNA and sgRNA, targeted deep sequencing; details: LNP with ABE mRNA + sgRNA, 0.15 mg/kg total RNA, tail vein, Balb/C mice, four to six days post-dose
Experimental: Exemplary LNP preparations were selected to determine each preparation's ability to perform base editing in a Balb/C mouse model as described herein.
Lipid nanoparticle components were dissolved in 100% ethanol at specified lipid component molar ratios. mRNA encoding an adenine base editor and a chemically-modified sgRNA was dissolved at a mass ratio of 1:1 in 50 mM citrate, pH 4.0, resulting in a concentration of NA cargo of approximately 0.1 mg/mL.
LNP preparations were formulated with molar ratios of 47.5% Ionizable Lipid: 40% Cholesterol: 2.5% PEG2000-DMG: 10% DSPC total lipid to NA mass ratio of 6 to 12. […]
A 3:1 ratio of aqueous to organic solvent was maintained during mixing using differential flow rates. […] After this initial dialysis, each individual LNP preparation was characterized via dynamic light scattering (DLS) to measure size and polydispersity. pKa of a subpopulation of LNP preparations was measured via TNS assay. […]
Age-matched mice were also used to administer vehicle (1×TBS) via tail vein injection as a control. […] Base editing was determined by performing targeted deep sequencing analysis at the ALAS1 target site using extracted genomic DNA. […] Library size and concentration was confirmed by Fragment Analyzer (Agilent) and analyzed for whole genome sequencing using an Illumina HiSeq.

[2] = RNA encapsulation efficiency of LNPs by Ribogreen assay; type: physicochemical; details: LNP of 47.5% ionizable lipid: 40% cholesterol: 2.5% PEG-2000 DMG: 10% DPSC, N/P 4-8
Experimental: as §1
RNA concentration and encapsulation efficiency were determined by Ribogreen assay (BioTek Synergy LX plate reader).

[3] = LNP biodistribution in mice, barcode fold above input (FAI) in tissues; type: in vivo; details: pooled LNP IV tail vein, 4 hours post-dose, fold above input of barcode
Experimental: Male and female mice aged approximately 8-12 weeks were used for studies described by the present Example. Each mouse was temporarily restrained and pooled LNP was administered IV via tail vein injection in up to five animals per experiment. Age-matched mice was also used to administer vehicle (1×TBS) via tail vein injection in up to three animals per experiment. Additional routes of administration can also be conducted including intracerebral ventricular (ICV), intracisterna manga (ICM), intrathecal (IT), intramuscular (IM), nebulization, intranasal (IN), subcutaneous (SC), intraarticular, and intradermal (ID). At 4 hours post-dose, tissues including liver, spleen, bone marrow, testes, gastrocnemius, quadricep, lung, heart, kidney, and pancreas may be collected for analysis.
RNA from tissues were extracted using the Reliaprep RNA extraction kit, and libraries were prepared using the RNAseq kit, and sequenced on either a MiSeq or NextSeg500.
To screen for preferential LNP delivery to a target tissues, the relative abundance of each barcode in one or more target tissues was measured and compared to the relative abundance of each barcode to its corresponding relative input abundance to determine fold above input (FAI) for each barcode. If the FAI of a barcode in a target tissue is above a threshold or above the FAI of a different LNP in the same tissue, the LNP can be identified as preferentially delivering to the target tissue.
The FAI is the normalized relative abundance of a barcode in a selected sample as compared to its frequency in the input. The FAI of a barcode indicates how a LNP's abundance changes relative to the rest of the LNP pool. The FAI value of the barcode was calculated by normalizing the relative abundance in the barcode sequence counts in the isolated samples to its relative abundance in the administration input. […] The FAI then indicates the performance of an LNP relative to the input LNP composition.

CC/C=C\CCCCOC(CCCC(=O)Oc1ccc(CC(=O)OCCC2CCN(CCSSCCN3CCC(CCOC(=O)Cc4ccc(OC(=O)CCCC(OCCCC/C=C\CC)OCCCC/C=C\CC)cc4)CC3)CC2)cc1)OCCCC/C=C\CC [7-8, (((((disulfanediylbis(ethane-2,1-diyl))bis(piperidine-1,4-diyl))bis(ethane-2,1-diyl))bis(oxy))bis(2-oxoethane-2,1-diyl))bis(4,1-phenylene) bis(5,5-bis(((Z)-oct-5-en-1-yl)oxy)pentanoate)]
Mean Diameter (nm) [1]: 74.9 nm | Mean PDI [1]: 0.08 | base editing observed in liver (ALAS1 target site): 13.7% | Mean Encapsulation Efficiency (%) [2]: 87.7%

CC/C=C\CCCCOC(CCC(=O)Oc1ccc(CC(=O)OCCC2CCN(CCSSCCN3CCC(CCOC(=O)Cc4ccc(OC(=O)CCC(OCCCC/C=C\CC)OCCCC/C=C\CC)cc4)CC3)CC2)cc1)OCCCC/C=C\CC [7-9, (((((disulfanediylbis(ethane-2,1-diyl))bis(piperidine-1,4-diyl))bis(ethane-2,1-diyl))bis(oxy))bis(2-oxoethane-2,1-diyl))bis(4,1-phenylene) bis(4,4-bis(((Z)-oct-5-en-1-yl)oxy)butanoate)]
Mean Diameter (nm) [1]: 72.1 nm | Mean PDI [1]: 0.09 | Mean Encapsulation Efficiency (%) [2]: 88.2%

CCCCC/C=C\C/C=C\CCCCCCCCC(CCCCCCCC/C=C\C/C=C\CCCCC)OC(=O)CCCN(C)C [MC3, (6Z,9Z,28Z,31Z)-heptatriaconta-6,9,28,31-tetraen-19-yl 4-(dimethylamino) butanoate]
FAI (Liver) ([3]; liver): 0.50 | FAI (Lung) ([3]; lung): 1.02 | FAI (Spleen) ([3]; spleen): 1.46
